According to US11142524B2, “Substituted-3H-imidazo[4,5-c]pyridine and 1H-pyrrolo[2,3-c]pyridine series of novel Ectonucleotide Pyrophosphatase/Phosphodiesterase-1 (ENPP1) and stimulator for interferon genes (STING) modulators as cancer immunotherapeutics” (Stingray Therapeutics, Inc., priority 2018, dated 2021):
Each block holds one compound with its values, some of them ahead of it.

Experiments:
[1] = molecular target: T1, ENPP1 protein (Homo sapiens (Human), UniProt P22413); experiment: ENPP1 Inhibition Assay (thymidine 5′-monophosphate p-nitrophenol ester substrate); assay type: biochemical
T1 sequence (P22413 whole entry, looked up, change not shown): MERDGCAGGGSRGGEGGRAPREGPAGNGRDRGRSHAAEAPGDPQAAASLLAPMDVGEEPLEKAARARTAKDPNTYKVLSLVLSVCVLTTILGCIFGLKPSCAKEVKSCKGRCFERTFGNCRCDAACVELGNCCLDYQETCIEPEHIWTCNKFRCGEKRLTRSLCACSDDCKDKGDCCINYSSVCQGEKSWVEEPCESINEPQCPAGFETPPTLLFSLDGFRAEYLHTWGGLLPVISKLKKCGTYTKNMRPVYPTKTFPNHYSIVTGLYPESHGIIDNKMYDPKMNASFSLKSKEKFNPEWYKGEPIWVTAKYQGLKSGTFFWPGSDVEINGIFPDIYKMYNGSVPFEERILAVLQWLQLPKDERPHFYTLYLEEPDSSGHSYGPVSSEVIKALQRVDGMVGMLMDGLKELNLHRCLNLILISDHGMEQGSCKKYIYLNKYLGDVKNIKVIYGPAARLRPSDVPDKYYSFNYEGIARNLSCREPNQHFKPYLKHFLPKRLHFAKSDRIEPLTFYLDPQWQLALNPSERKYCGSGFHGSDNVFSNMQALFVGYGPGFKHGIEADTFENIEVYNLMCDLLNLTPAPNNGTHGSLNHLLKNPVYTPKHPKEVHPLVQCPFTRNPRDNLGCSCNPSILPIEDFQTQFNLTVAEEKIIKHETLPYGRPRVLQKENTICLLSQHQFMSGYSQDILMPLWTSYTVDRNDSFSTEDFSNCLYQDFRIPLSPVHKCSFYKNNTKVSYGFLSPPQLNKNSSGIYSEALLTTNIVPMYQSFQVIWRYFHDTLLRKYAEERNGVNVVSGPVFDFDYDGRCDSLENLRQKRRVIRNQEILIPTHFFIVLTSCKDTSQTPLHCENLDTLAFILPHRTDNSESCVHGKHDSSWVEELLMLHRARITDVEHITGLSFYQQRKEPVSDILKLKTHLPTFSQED
Description: Assay Buffer: 1 mM CaCl2, 0.2 mM ZnCl2, 50 mM Tris, pH 9.0. Substrate: 8 mM Thymidine 5′-monophosphate p-nitrophenol ester sodium salt (Sigma Cat #T4510). Enzyme: 5 ng/L Recombinant Human ENPP-1 Protein (R&D Cat #6136-EN-010) in DMSO in 96-well clear assay plates
(§1) An eight point serial dilution of drugs was prepared in 10× in assay buffer with the final assay concentrations starting at 10 μM, 3 μM, 1 μM, 0.3 μM . . . 0 μM. A dilution of DMSO was included as a control. The assay plate was set up as follows with each well in duplicate: 81 μL assay buffer+10 μL ENPP1 inhibitor or DMSO+5 μL Substrate+4 μL Enzyme. Both the enzyme and substrate were added to opposite sides of the well to ensure that there was no interaction until all wells had both components. The plate was then centrifuged gently for 10 seconds, followed by an incubation at 37° C. for 45 minutes. The reaction was quantified by measuring absorbance at 405 nm using the Envision.
(§2) IC50 values are determined using GraphPad Prism 5 software. The data were entered as an X-Y plot into the software as percent inhibition for each concentration of the drug. The concentration values of the drug were log transformed and the nonlinear regression was carried out using the “sigmoidal dose-response (variable slope)” option within the GraphPad software to model the data and calculate IC50 values. The IC50 values reported are the concentration of drug at which 50% inhibition was reached.

[2] = molecular target: Recombinant Human ENPP-2/Autotaxin Protein (Homo sapiens (Human), UniProt Q13822); experiment: ENPP2 Inhibition Assay; assay type: biochemical
Description: Assay Buffer: 10 mM CaCl2, 5 mM MgCl2, 50 mM Tris, 0.02% Brij-35, pH 8.5. Substrate: 2 mM Bis(p-Nitrophenyl) Phosphate Sodium Salt (Sigma Cat # N3002). Enzyme: 0.2 ng/μL Recombinant Human ENPP-2/Autotaxin Protein (R&D Cat #5255-EN), PF-3080 in DMSO in 96-well clear assay plates
as §1, with “15” for “81”, “DMSO+50” for “DMSO+5”, “Substrate+25” for “Substrate+4”
as §2

[3] = molecular target: T1, ENPP1 protein; experiment: ENPP1 Thermal Shift Assay (Example 1); assay type: binding
Description: Assay Buffer (1 mM CaCl2, 0.2 mM ZnCl2, 50 mM Tris, pH 9.0) 5000×SYPRO Orange (ThermoFisher cat #S6651) 384-well PCR Plates
Each drug was prepared as a 10× solution in the assay buffer and SYPRO Orange was diluted to 10× concentration in water. Wells were set up in duplicate in a 384-well PCR plate as follows: 14 μL assay buffer, 2 μL ENPP1 Inhibitor or DMSO, 2 μL (0.5 μg) ENPP1 protein. Each well was mixed and incubated on ice for 5 minutes. Post incubation, 2 μL of SYPRO Orange was mixed into each well and followed by a gentle centrifugation. The protein melt reaction was run using ViiA7 software with temperatures beginning at 25° C. and increasing by 0.05° C./s to the maximum temperature of 99° C.
In a 384-well plate, 1.0 μg of ENPP1 protein incubated with 100 μM of the corresponding drug for 5 minutes. Each well exposed to increasing temperatures to determine an unfolding temperature of the protein.

[4] = tested on: Saos-2 Cells; experiment: ENPP1 Mineralization Assay; assay type: cell-based; conditions: FIG. 4, normalized against DMSO control
Description: Saos-2 Cells (ATCC CAT #HTB-85). Culture Medium. 24-well Tissue Culture Plate. Ascorbic Acid, 5 mg/mL (100×). β-Glycerophosphate, 1M (100×). Phosphate Buffered Saline. Alizarin Red, 40 mM pH 4.2. 70% Ethanol. Dye Extraction Reagent, 10% Methanol+10% Acetic Acid
Saos-2 cells were plated at a density of 1.5×10^6 cells/well and allowed to grow to 100% confluency over the following 1-2 days. Once completely confluent, the media was replaced with fresh media supplemented with 1× ascorbic acid, 1× β-glycerophosphate, and varying concentrations of ENPP1 inhibitor (if applicable). The addition of the mineralization components was considered Day 1. On Day 3, the media was gently aspirated with no wash followed by the addition of fresh media, mineralization components, and ENPP1 inhibitor (if applicable). On day 5, the media was gently aspirated and the cells were washed twice with PBS. The cells were then fixed with ice cold 70% ethanol for 1 hour at 4° C. Cells were washed once with PBS and stained with Alizarin Red for 30 minutes at room temperature with gentle rotation. Stained cells were washed three times with water for 10 minutes at room temperature with gentle rotation. After imaging cells, dye extraction reagent was added to each well and incubated for 30 minutes at room temperature. Alizarin red was quantified by measuring absorbance at a wavelength of 405 nm using the Envision.
FIG. 9 depicts a picture of results of a similar SAOS-2 mineralization assay. SAOS-2 cell were cultured in the presence and absence of ENPP1 inhibitor (compound 78, 107-02 or 108) and exposed to mineralization components for 3 days.

[5] = tested on: MDA-MB-468; experiment: Chou-Talalay Synergy Study with Olaparib, MDA-MB-468; assay type: cell-based; conditions: MDA-MB-468, 72 hours
Description: Cell Lines: MDA-MB-468 and UWB289.1 (ATCC). Cell Titer Glo (Promega cat #: G7572). 96-well TC treated, white assay plates
Cells were cultured according to ATCC tissue culture recommendations. Cells were plated in a 96-well tissue culture plate at a density of 1500 cells/well and allowed to settle overnight. The following day, both drugs were prepared at 10× concentration in the following ratios (Compound 22:Olaparib): 1:1, 10:1, and 1:10. The drugs were serially diluted to create an 8-point dose curve and 10 μL of each drug was added to the cells for a total volume of 100 μL/well. Plates were placed in a tissue culture incubator for 72 hours. Following incubation, each plate was treated with Cell Titer Glo according to vendor recommendation and luminescence was measured with the Envision Plate Reader. Data was analyzed using CalcuSyn software according to the methods described in Chou, Drug combination studies and their synergy quantification using the Chou-Talalay method, Cancer Res. 2010 Jan. 15; 70(2):440-6.
A Combination index (CI) value greater than 1 indicates […], equal to 1 indicates additive and less than 1 indicates synergy.

[6] = tested on: B16F10 tumor; experiment: Anti-tumor efficacy in B16F10 (melanoma) syngeneic model; assay type: in vivo, C57BL/6 mice
Text: Animals: Female C57BL/6 (4-6 week's age from Taconic).
The B16F10 cells were propagated in DMEM cell culture medium containing 10% Fetal Bovine Serum. Cells were harvested in logarithmic growth phase and implanted subcutaneously ([…]) in the lower abdomen of mice. Tumor growth was monitored daily and after the tumors had reached 80 to 100 mm3, mice were randomized into groups consisting of 8 animals per group. Animals were euthanized when tumors reached around 2000 mm^3 or treatment regime completed or 20% of body weight loss, or developed ulceration and necrosis. Upon termination, tumor samples and blood were collected and analyzed for biomarkers.

[7] = tested on: CT26 tumor; experiment: CT26 tumor growth inhibition study; assay type: in vivo; conditions: 30 mg P.O. QD, FIG. 14

- inhibiting the activity of ENPP1 ([1]; FIG. 1): effective
- IC50 ([1]; Table 1, FIG. 1, read-out: IC50): 86.8 nM
- selective at inhibiting ENPP1 but not ENPP2 [2]: selective
- inhibiting the activity of ENPP2 ([2]; FIGS. 2A and 2B): ineffective
- increasing the stability of recombinant ENPP1 protein ([3]; FIG. 3): effective
- Tm (midpoint of the protein unfolding transition) of ENPP1 ([3]; FIG. 3, ENPP1 alone 64.2° C.): 67.84 °C
Structure (SMILES): COc1ccc(NC(=O)CSc2nc3cc(Cl)ncc3[nH]2)cc1O [Compound 21, 2-((6-chloro-3H-imidazo[4,5-c]pyridin-2-yl)thio)-N-(3-hydroxy-4-methoxyphenyl) acetamide]
- inhibiting ENPP1 ability to produce mineralized nodules [4]: effective

Structure (SMILES): O=C(c1cc(Cc2n[nH]c(=O)c3ccccc23)ccc1F)N1CCN(C(=O)C2CC2)CC1 [Olaparib]
- ED50 Drug Concentration Olaparib [5]: 185065 nM

- Tm (° C.) ([3]; Table 2, FIG. 7, 100 μM drug, 1.0 μg ENPP1, NT 60.05): 61.37 °C
- ΔTm at 100 µM ([3]; Table 2, FIG. 7, 100 μM drug, 1.0 μg ENPP1, read-out: ΔTm (° C.)): 1.32 °C
Structure (SMILES): COc1cc(NC(=O)CSc2nc3cc(Cl)ncc3[nH]2)ccc1O [Compound 22, 2-((6-chloro-3H-imidazo[4,5-c]pyridin-2-yl)thio)-N-(4-hydroxy-3-methoxyphenyl) acetamide]
- B16F10 tumor growth inhibition ([6]; 30 mg/kg dose (FIG. 6A / FIG. 13A)): 28%
- B16F10 tumor growth inhibition ([6]; FIG. 6B / FIG. 13B, dose and route not stated): 27%
- CT26 tumor growth inhibition [7]: 39%
